Measurements: patent US20240382629A1, “HETEROBIVALENT AND HOMOBIVALENT AGENTS TARGETING FIBROBLAST ACTIVATION PROTEIN ALPHA AND/OR PROSTATE-SPECIFIC MEMBRANE ANTIGEN” (The Johns Hopkins University, priority 2021, published 2024)
“And” between values parts separate entries of the source, which are not always exact repeats. Equal values may be shown once.

Assay: Biodistribution of [^18F]JHU122047 with UAMC-01110 blocker
Type: in vivo, mouse
Details: 60 min; for % ID/g Bladder / % ID/g Blood / % ID/g Brain / % ID/g Fat / % ID/g Femur / % ID/g Heart / % ID/g Kidney / % ID/g Large intestine / % ID/g Liver / % ID/g Lung / % ID/g Muscle / % ID/g Pancreas / % ID/g Salivery gland / % ID/g Small intestine / % ID/g Spleen / % ID/g Stomach / % ID/g Tumor: individual mouse
[1] = NOD/SCID Model, + Blocker (UAMC-01110)
[2] = Nude Model, + Blocker (UAMC-01110)

N#C[C@@H]1CCCN1C(=O)CNC(=O)c1ccnc2ccc(OCCCNC(=O)[C@H](CCNC(=O)c3ccc([18F])nc3)NC(=O)CN3CCN(CC(=O)[O-])CCN(CC(=O)[O-])CCN(CC(=O)[O-])CC3)cc12.[In+3] [[^18F]Sri-08-51]
% ID/g Bladder [1]: 13.35 % ID/g and 61.94 % ID/g | % ID/g Blood [1]: 0.22 % ID/g and 0.40 % ID/g | % ID/g Brain [1]: 0.02 % ID/g and 1.02 % ID/g | % ID/g Fat [1]: 0.06 % ID/g | % ID/g Femur [1]: 0.88 % ID/g and 0.38 % ID/g | % ID/g Heart [1]: 0.11 % ID/g and 0.25 % ID/g | % ID/g Kidney [1]: 1.42 % ID/g and 1.40 % ID/g | % ID/g Large intestine [1]: 0.19 % ID/g and 0.35 % ID/g | % ID/g Liver [1]: 4.02 % ID/g and 8.14 % ID/g | % ID/g Lung [1]: 0.32 % ID/g and 0.61 % ID/g | % ID/g Muscle [1]: 0.07 % ID/g and 0.49 % ID/g | % ID/g Pancreas [1]: 0.08 % ID/g and 0.17 % ID/g | % ID/g Salivery gland [1]: 0.45 % ID/g and 0.26 % ID/g | % ID/g Small intestine [1]: 0.94 % ID/g and 2.12 % ID/g | % ID/g Spleen [1]: 0.14 % ID/g and 0.32 % ID/g | % ID/g Stomach [1]: 0.25 % ID/g and 0.45 % ID/g | % ID/g Tumor [1]: 1.34 % ID/g and 0.91 % ID/g | % ID/g Bladder Mean [1]: 37.64 % ID/g | % ID/g Blood Mean [1]: 0.31 % ID/g | % ID/g Brain Mean [1]: 0.52 % ID/g | % ID/g Fat Mean [1]: 0.06 % ID/g | % ID/g Femur Mean [1]: 0.88 % ID/g | % ID/g Heart Mean [1]: 0.18 % ID/g | % ID/g Kidney Mean [1]: 1.41 % ID/g | % ID/g Large intestine Mean [1]: 0.27 % ID/g | % ID/g Liver Mean [1]: 6.08 % ID/g | % ID/g Lung Mean [1]: 0.47 % ID/g | % ID/g Muscle Mean [1]: 0.28 % ID/g | % ID/g Pancreas Mean [1]: 0.13 % ID/g | % ID/g Salivary gland Mean [1]: 0.35 % ID/g | % ID/g Small intestine Mean [1]: 1.53 % ID/g | % ID/g Spleen Mean [1]: 0.23 % ID/g | % ID/g Stomach Mean [1]: 0.35 % ID/g | % ID/g Tumor Mean [1]: 1.13 % ID/g | % ID/g Bladder (NOD/SCID Model, no blocker): 44.77 % ID/g and 23.08 % ID/g | % ID/g Blood (NOD/SCID Model, no blocker): 4.18 % ID/g and 5.83 % ID/g | % ID/g Brain (NOD/SCID Model, no blocker): 0.26 % ID/g and 0.25 % ID/g | % ID/g Fat (NOD/SCID Model, no blocker): 2.81 % ID/g and 0.45 % ID/g | % ID/g Femur (NOD/SCID Model, no blocker): 4.83 % ID/g and 5.16 % ID/g | % ID/g Heart (NOD/SCID Model, no blocker): 1.74 % ID/g and 2.39 % ID/g | % ID/g Kidney (NOD/SCID Model, no blocker): 2.10 % ID/g and 2.19 % ID/g | % ID/g Large intestine (NOD/SCID Model, no blocker): 1.91 % ID/g and 1.87 % ID/g | % ID/g Liver (NOD/SCID Model, no blocker): 3.23 % ID/g and 4.21 % ID/g | % ID/g Lung (NOD/SCID Model, no blocker): 2.77 % ID/g and 2.76 % ID/g | % ID/g Muscle (NOD/SCID Model, no blocker): 2.84 % ID/g and 2.83 % ID/g | % ID/g Pancreas (NOD/SCID Model, no blocker): 3.99 % ID/g and 4.82 % ID/g | % ID/g Salivery gland (NOD/SCID Model, no blocker): 12.48 % ID/g and 14.32 % ID/g | % ID/g Small intestine (NOD/SCID Model, no blocker): 2.09 % ID/g | % ID/g Spleen (NOD/SCID Model, no blocker): 1.27 % ID/g and 1.71 % ID/g | % ID/g Stomach (NOD/SCID Model, no blocker): 1.65 % ID/g and 1.75 % ID/g | % ID/g Tumor (NOD/SCID Model, no blocker): 16.64 % ID/g and 15.98 % ID/g | % ID/g Bladder Mean (NOD/SCID Model, no blocker): 33.92 % ID/g | % ID/g Blood Mean (NOD/SCID Model, no blocker): 5.01 % ID/g | % ID/g Brain Mean (NOD/SCID Model, no blocker): 0.25 % ID/g | % ID/g Fat Mean (NOD/SCID Model, no blocker): 1.63 % ID/g | % ID/g Femur Mean (NOD/SCID Model, no blocker): 5.00 % ID/g | % ID/g Heart Mean (NOD/SCID Model, no blocker): 2.07 % ID/g | % ID/g Kidney Mean (NOD/SCID Model, no blocker): 2.15 % ID/g | % ID/g Large intestine Mean (NOD/SCID Model, no blocker): 1.89 % ID/g | % ID/g Liver Mean (NOD/SCID Model, no blocker): 3.72 % ID/g | % ID/g Lung Mean (NOD/SCID Model, no blocker): 2.77 % ID/g | % ID/g Muscle Mean (NOD/SCID Model, no blocker): 2.84 % ID/g | % ID/g Pancreas Mean (NOD/SCID Model, no blocker): 4.40 % ID/g | % ID/g Salivary gland Mean (NOD/SCID Model, no blocker): 13.40 % ID/g | % ID/g Small intestine Mean (NOD/SCID Model, no blocker): 2.09 % ID/g | % ID/g Spleen Mean (NOD/SCID Model, no blocker): 1.49 % ID/g | % ID/g Stomach Mean (NOD/SCID Model, no blocker): 1.70 % ID/g | % ID/g Tumor Mean (NOD/SCID Model, no blocker): 16.31 % ID/g | % ID/g Bladder [2]: 0.22 % ID/g and 0.74 % ID/g | % ID/g Blood [2]: 0.10 % ID/g | % ID/g Brain [2]: 0.01 % ID/g | % ID/g Fat [2]: 0.03 % ID/g and 0.01 % ID/g | % ID/g Femur [2]: 0.12 % ID/g | % ID/g Heart [2]: 0.05 % ID/g | % ID/g Kidney [2]: 1.19 % ID/g and 1.05 % ID/g | % ID/g Large intestine [2]: 0.08 % ID/g and 0.11 % ID/g | % ID/g Liver [2]: 1.88 % ID/g and 2.01 % ID/g | % ID/g Lung [2]: 0.21 % ID/g and 0.22 % ID/g | % ID/g Muscle [2]: 0.07 % ID/g and 0.04 % ID/g | % ID/g Pancreas [2]: 0.05 % ID/g | % ID/g Salivery gland [2]: 0.07 % ID/g and 0.08 % ID/g | % ID/g Small intestine [2]: 3.50 % ID/g and 2.97 % ID/g | % ID/g Spleen [2]: 0.08 % ID/g | % ID/g Stomach [2]: 0.08 % ID/g and 0.15 % ID/g | % ID/g Tumor [2]: 0.17 % ID/g and 0.18 % ID/g | % ID/g Bladder Mean [2]: 0.48 % ID/g | % ID/g Blood Mean [2]: 0.10 % ID/g | % ID/g Brain Mean [2]: 0.01 % ID/g | % ID/g Fat Mean [2]: 0.02 % ID/g | % ID/g Femur Mean [2]: 0.12 % ID/g | % ID/g Heart Mean [2]: 0.05 % ID/g | % ID/g Kidney Mean [2]: 1.12 % ID/g | % ID/g Large intestine Mean [2]: 0.09 % ID/g | % ID/g Liver Mean [2]: 1.95 % ID/g | % ID/g Lung Mean [2]: 0.21 % ID/g | % ID/g Muscle Mean [2]: 0.05 % ID/g | % ID/g Pancreas Mean [2]: 0.05 % ID/g | % ID/g Salivary gland Mean [2]: 0.08 % ID/g | % ID/g Small intestine Mean [2]: 3.24 % ID/g | % ID/g Spleen Mean [2]: 0.08 % ID/g | % ID/g Stomach Mean [2]: 0.11 % ID/g | % ID/g Tumor Mean [2]: 0.18 % ID/g | % ID/g Bladder (Nude Model, no blocker): 1.18 % ID/g and 2.99 % ID/g | % ID/g Blood (Nude Model, no blocker): 3.06 % ID/g and 3.20 % ID/g | % ID/g Brain (Nude Model, no blocker): 0.09 % ID/g and 0.08 % ID/g | % ID/g Fat (Nude Model, no blocker): 0.52 % ID/g and 0.77 % ID/g | % ID/g Femur (Nude Model, no blocker): 4.44 % ID/g and 3.86 % ID/g | % ID/g Heart (Nude Model, no blocker): 1.35 % ID/g and 1.52 % ID/g | % ID/g Kidney (Nude Model, no blocker): 1.69 % ID/g and 1.72 % ID/g | % ID/g Large intestine (Nude Model, no blocker): 1.20 % ID/g and 1.30 % ID/g | % ID/g Liver (Nude Model, no blocker): 1.81 % ID/g and 1.93 % ID/g | % ID/g Lung (Nude Model, no blocker): 2.03 % ID/g and 2.25 % ID/g | % ID/g Muscle (Nude Model, no blocker): 1.86 % ID/g and 1.93 % ID/g | % ID/g Pancreas (Nude Model, no blocker): 3.94 % ID/g and 3.77 % ID/g | % ID/g Salivery gland (Nude Model, no blocker): 7.74 % ID/g | % ID/g Small intestine (Nude Model, no blocker): 1.93 % ID/g and 1.63 % ID/g | % ID/g Spleen (Nude Model, no blocker): 0.90 % ID/g and 1.02 % ID/g | % ID/g Stomach (Nude Model, no blocker): 1.06 % ID/g and 1.16 % ID/g | % ID/g Tumor (Nude Model, no blocker): 10.87 % ID/g and 13.08 % ID/g | % ID/g Bladder Mean (Nude Model, no blocker): 2.09 % ID/g | % ID/g Blood Mean (Nude Model, no blocker): 3.13 % ID/g | % ID/g Brain Mean (Nude Model, no blocker): 0.09 % ID/g | % ID/g Fat Mean (Nude Model, no blocker): 0.64 % ID/g | % ID/g Femur Mean (Nude Model, no blocker): 4.15 % ID/g | % ID/g Heart Mean (Nude Model, no blocker): 1.43 % ID/g | % ID/g Kidney Mean (Nude Model, no blocker): 1.70 % ID/g | % ID/g Large intestine Mean (Nude Model, no blocker): 1.25 % ID/g | % ID/g Liver Mean (Nude Model, no blocker): 1.87 % ID/g | % ID/g Lung Mean (Nude Model, no blocker): 2.14 % ID/g | % ID/g Muscle Mean (Nude Model, no blocker): 1.90 % ID/g | % ID/g Pancreas Mean (Nude Model, no blocker): 3.85 % ID/g | % ID/g Salivary gland Mean (Nude Model, no blocker): 8.22 % ID/g | % ID/g Small intestine Mean (Nude Model, no blocker): 1.78 % ID/g | % ID/g Spleen Mean (Nude Model, no blocker): 0.96 % ID/g | % ID/g Stomach Mean (Nude Model, no blocker): 1.11 % ID/g | % ID/g Tumor Mean (Nude Model, no blocker): 11.97 % ID/g
